# The source made the active and inactive calls. The calls are words filed in the database; no cut-off is given here.
# Experiments:
# [1] = test system: T47D; experiment: Inhibition of human progesterone receptor B protein expression transfected in human T47D cells at 25 nM by Western blot; assay type: functional, cell-based
# [2] = test system: T47D; experiment: Inhibition of human progesterone receptor A protein expression transfected in human T47D cells at 25 nM by Western blot; assay type: functional, cell-based
# [3] = test system: T47D; experiment: Inhibition of human progesterone receptor A gene expression transfected in human T47D cells at 200 nM by RT-PCR; assay type: functional, cell-based
# [4] = test system: T47D; experiment: Induction of morphology changes in human T47D cells expressing human progesterone receptor assessed as increase in cell height by confocal microscopy; assay type: functional, cell-based
# [5] = test system: T47D; experiment: Reduction in cell proliferation of human T47D cells expressing human progesterone receptor by FACS method; assay type: functional, cell-based
# [6] = test system: T47D; experiment: Inhibition of human progesterone receptor B protein expression transfected in human T47D cells at 200 nM by Western blot; assay type: functional
# [7] = test system: T47D; experiment: Inhibition of human progesterone receptor B protein expression transfected in human T47D cells at 200 nM in presence of 10 nM of estradiol by Western blot; assay type: functional, cell-based
# [8] = test system: T47D; experiment: Inhibition of human progesterone receptor B gene expression transfected in human T47D cells at 200 nM by RT-PCR; assay type: functional, cell-based
# [9] = test system: T47D; experiment: Increase in Ezrin mRNA expression in human T47D cells expressing human progesterone receptor by RT-PCR relative to untreated control; assay type: functional
# [10] = test system: T47D; experiment: Inhibition of human progesterone receptor A protein expression transfected in human T47D cells at 200 nM by Western blot; assay type: functional
# [11] = test system: T47D; experiment: Inhibition of human progesterone receptor A protein expression transfected in human T47D cells at 200 nM in presence of 10 nM of estradiol by Western blot; assay type: functional, cell-based
Compound,inhibition [1],inhibition [2],inhibition [3],Activity [4],Activity [5],inhibition at 0.2 µM [6],inhibition [7],inhibition [8],fold change (FC) [9],inhibition at 0.2 µM [10],inhibition [11]
Cc1cn([C@@H]2O[C@H](COP(=O)(O)O[C@H]3[C@@H](O)[C@H](n4cnc5c(=O)[nH]c(N)nc54)O[C@@H]3COP(=O)(O)O[C@H]3[C@@H](O)[C@H](n4ccc(=O)[nH]c4=O)O[C@@H]3COP(=O)(O)O[C@H]3[C@@H](O)[C@H](n4cnc5c(N)ncnc54)O[C@@H]3COP(=O)(O)O[C@H]3C[C@H](n4ccc(N)nc4=O)O[C@@H]3COP(=O)(O)O[C@H]3[C@@H](O)[C@H](n4ccc(=O)[nH]c4=O)O[C@@H]3COP(=O)(O)O[C@H]3C[C@H](n4cnc5c(=O)[nH]c(N)nc54)O[C@@H]3COP(=O)(O)O[C@H]3[C@@H](O)[C@H](N4CC=C(N)NC4=O)O[C@@H]3COP(=O)(O)O[C@H]3[C@@H](O)[C@H](n4ccc(=O)[nH]c4=O)O[C@@H]3COP(=O)(O)O[C@H]3[C@@H](O)[C@H](n4cnc5c(=O)[nH]c(N)nc54)O[C@@H]3COP(=O)(O)O[C@H]3[C@@H](O)[C@H](n4cnc5c(N)ncnc54)O[C@@H]3COP(=O)(O)O[C@H]3[C@@H](O)[C@H](n4ccc(N)nc4=O)O[C@@H]3COP(=O)(O)O[C@H]3[C@@H](O)[C@H](n4ccc(N)nc4=O)O[C@@H]3COP(=O)(O)O[C@H]3[C@@H](O)[C@H](n4ccc(=O)[nH]c4=O)O[C@@H]3COP(=O)(O)O[C@H]3C[C@H](n4cnc5c(=O)[nH]c(N)nc54)O[C@@H]3COP(=O)(O)O[C@H]3[C@@H](O)[C@H](n4cnc5c(N)ncnc54)O[C@@H]3COP(=O)(O)O[C@H]3[C@@H](O)[C@H](n4cnc5c(=O)[nH]c(N)nc54)O[C@@H]3COP(=O)(O)O[C@H]3[C@@H](O)[C@H](n4cnc5c(=O)[nH]c(N)nc54)O[C@@H]3COP(=O)(O)O[C@H]3[C@@H](O)[C@H](n4cnc5c(=O)[nH]c(N)nc54)O[C@@H]3COP(=O)(O)O[C@H]3[C@@H](O)[C@H](n4cnc5c(=O)[nH]c(N)nc54)O[C@@H]3CO)[C@@H](OP(=O)(O)OC[C@H]3O[C@@H](n4cc(C)c(=O)[nH]c4=O)C[C@@H]3O)[C@H]2O)c(=O)[nH]c1=O,Active,Active,,,,,,,,,
Cc1cn(CC(=O)N(CCNC(=O)CN(CCNC(=O)CN(CCNC(=O)CNC(=O)[C@@H](N)CCCCN)C(=O)Cn2cc(C)c(=O)[nH]c2=O)C(=O)Cn2cnc3c(=O)[nH]c(N)nc32)CC(=O)NCCN(CC(=O)NCCN(CC(=O)NCCN(CC(=O)NCCN(CC(=O)NCCN(CC(=O)NCCN(CC(=O)NCCN(CC(=O)NCCN(CC(=O)NCCN(CC(=O)NCCN(CC(=O)NCCN(CC(=O)NCCN(CC(=O)NCCN(CC(=O)NCCN(CC(=O)NCCN(CC(=O)NCCN(CC(=O)N[C@@H](CCCCN)C(=O)O)C(=O)Cn2ccc(N)nc2=O)C(=O)Cn2cnc3c(=O)[nH]c(N)nc32)C(=O)Cn2cnc3c(N)ncnc32)C(=O)Cn2ccc(N)nc2=O)C(=O)Cn2cnc3c(N)ncnc32)C(=O)Cn2ccc(N)nc2=O)C(=O)Cn2ccc(N)nc2=O)C(=O)Cn2cc(C)c(=O)[nH]c2=O)C(=O)Cn2cnc3c(=O)[nH]c(N)nc32)C(=O)Cn2cnc3c(N)ncnc32)C(=O)Cn2ccc(N)nc2=O)C(=O)Cn2ccc(N)nc2=O)C(=O)Cn2cnc3c(=O)[nH]c(N)nc32)C(=O)Cn2cnc3c(=O)[nH]c(N)nc32)C(=O)Cn2cc(C)c(=O)[nH]c2=O)C(=O)Cn2ccc(N)nc2=O)c(=O)[nH]c1=O,Active,Active,inactive,Active,Active,75%,Active,inactive,5,75%,Active

# From ChEMBL document CHEMBL1240303, “Inhibiting transcription of chromosomal DNA with antigene peptide nucleic acids” (2005)
